{"source": "PubChem BioAssay AID328", "about": "(DTP/NCI, 2004)", "test_system": "BDF1 mice, P388 leukemia ip, median survival T/C", "assay": "NCI In Vivo Anticancer Drug Screen. Data for tumor model P388 Leukemia (intraperitoneal) in B6D2F1 (BDF1) mice", "details": "endpoint: median survival time, higher = longer survival", "summary_of_the_method": "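In tumour-bearing mice, survival after compound treatment is set against the vehicle group and given as a quotient.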", "note": "Several values for one entry are separate records, joined by “and”; a condition that tells them apart may be missing. Identical values can stand only once. Inconclusive results and toxic doses are left out."}
{"smiles": "COC(=O)[C@@]12OC[C@]34[C@H]([C@@H](O)[C@@H]1O)[C@@]1(C)CC(=O)C(O)=C(C)[C@@H]1C[C@H]3OC(=O)[C@H](OC(=O)/C=C(\\C)C(C)C)[C@@H]24", "values": [{"measurement": "T/C", "setting": "dose: 0.5 mg/kg/injection, schedule: Q08DX002 (ip), vehicle: saline + alcohol", "result": "109 % of control"}, {"measurement": "T/C", "setting": "dose: 0.5 mg/kg/injection, schedule: Q08DX002 (ip), vehicle: saline with Tween-80", "result": "116 % of control"}, {"measurement": "T/C", "setting": "dose: 0.65 mg/kg/injection, schedule: Q04DX003 (ip), vehicle: saline + alcohol", "result": "123 % of control"}, {"measurement": "T/C", "setting": "dose: 0.67 mg/kg/injection, schedule: Q01DX009 (ip), vehicle: saline with Tween-80", "result": "169 % of control"}, {"measurement": "T/C", "setting": "dose: 0.8 mg/kg/injection, schedule: Q01DX005 (ip), vehicle: saline + alcohol", "result": "164 % of control"}, {"measurement": "T/C", "setting": "dose: 0.8 mg/kg/injection, schedule: Q01DX005 (iv), vehicle: saline + alcohol", "result": "106 % of control and 119 % of control"}, {"measurement": "T/C", "setting": "dose: 1.0 mg/kg/injection, schedule: Q01DX001 (ip), vehicle: saline + alcohol", "result": "107 % of control"}, {"measurement": "T/C", "setting": "dose: 1.0 mg/kg/injection, schedule: Q01DX001 (ip), vehicle: saline with Tween-80", "result": "112 % of control"}, {"measurement": "T/C", "setting": "dose: 1.0 mg/kg/injection, schedule: Q01DX001 (oral), vehicle: saline + alcohol", "result": "100 % of control and 101 % of control"}, {"measurement": "T/C", "setting": "dose: 1.0 mg/kg/injection, schedule: Q01DX001 (sc), vehicle: saline + alcohol", "result": "114 % of control"}, {"measurement": "T/C", "setting": "dose: 1.0 mg/kg/injection, schedule: Q01DX009 (ip), vehicle: saline", "result": "166 % of control"}, {"measurement": "T/C", "setting": "dose: 1.0 mg/kg/injection, schedule: Q01DX009 (oral), vehicle: saline + alcohol", "result": "105 % of control and 107 % of control"}, {"measurement": "T/C", "setting": "dose: 1.0 mg/kg/injection, schedule: Q04DX003 (ip), vehicle: saline + alcohol", "result": "123 % of control"}, {"measurement": "T/C", "setting": "dose: 1.0 mg/kg/injection, schedule: Q04DX003 (ip), vehicle: saline with Tween-80", "result": "123 % of control"}, {"measurement": "T/C", "setting": "dose: 1.0 mg/kg/injection, schedule: Q08DX002 (ip), vehicle: saline + alcohol", "result": "115 % of control"}, {"measurement": "T/C", "setting": "dose: 1.0 mg/kg/injection, schedule: Q08DX002 (ip), vehicle: saline with Tween-80", "result": "99 % of control"}, {"measurement": "T/C", "setting": "dose: 1.08 mg/kg/injection, schedule: Q04DX003 (ip), vehicle: saline + alcohol", "result": "123 % of control"}, {"measurement": "T/C", "setting": "dose: 1.5 mg/kg/injection, schedule: Q01DX009 (ip), vehicle: saline with Tween-80", "result": "186 % of control"}, {"measurement": "T/C", "setting": "dose: 1.6 mg/kg/injection, schedule: Q01DX005 (ip), vehicle: saline + alcohol", "result": "182 % of control"}, {"measurement": "T/C", "setting": "dose: 1.8 mg/kg/injection, schedule: Q04DX003 (ip), vehicle: saline + alcohol", "result": "110 % of control and 123 % of control"}, {"measurement": "T/C", "setting": "dose: 2.0 mg/kg/injection, schedule: Q01DX001 (ip), vehicle: saline + alcohol", "result": "106 % of control"}, {"measurement": "T/C", "setting": "dose: 2.0 mg/kg/injection, schedule: Q01DX001 (ip), vehicle: saline with Tween-80", "result": "112 % of control"}, {"measurement": "T/C", "setting": "dose: 2.0 mg/kg/injection, schedule: Q01DX001 (oral), vehicle: saline + alcohol", "result": "99 % of control and 101 % of control"}, {"measurement": "T/C", "setting": "dose: 2.0 mg/kg/injection, schedule: Q01DX001 (sc), vehicle: saline + alcohol", "result": "113 % of control"}, {"measurement": "T/C", "setting": "dose: 2.0 mg/kg/injection, schedule: Q01DX009 (ip), vehicle: saline with Tween-80", "result": "97 % of control"}, {"measurement": "T/C", "setting": "dose: 2.0 mg/kg/injection, schedule: Q01DX009 (oral), vehicle: saline + alcohol", "result": "96 % of control and 111 % of control"}, {"measurement": "T/C", "setting": "dose: 2.0 mg/kg/injection, schedule: Q01DX009 (sc), vehicle: saline + alcohol", "result": "99 % of control"}, {"measurement": "T/C", "setting": "dose: 2.0 mg/kg/injection, schedule: Q08DX002 (ip), vehicle: saline + alcohol", "result": "99 % of control"}, {"measurement": "T/C", "setting": "dose: 2.0 mg/kg/injection, schedule: Q08DX002 (ip), vehicle: saline with Tween-80", "result": "91 % of control"}, {"measurement": "T/C", "setting": "dose: 3.2 mg/kg/injection, schedule: Q01DX005 (iv), vehicle: saline + alcohol", "result": "110 % of control"}, {"measurement": "T/C", "setting": "dose: 4.0 mg/kg/injection, schedule: Q01DX001 (oral), vehicle: saline + alcohol", "result": "101 % of control and 105 % of control"}, {"measurement": "T/C", "setting": "dose: 4.0 mg/kg/injection, schedule: Q01DX009 (oral), vehicle: saline + alcohol", "result": "97 % of control and 115 % of control"}, {"measurement": "T/C", "setting": "dose: 8.0 mg/kg/injection, schedule: Q01DX001 (oral), vehicle: saline + alcohol", "result": "98 % of control and 99 % of control"}, {"measurement": "T/C", "setting": "dose: 45.0 micrograms/kg/injection, schedule: Q01DX009 (ip), vehicle: saline + alcohol", "result": "155 % of control"}, {"measurement": "T/C", "setting": "dose: 90.0 micrograms/kg/injection, schedule: Q01DX009 (ip), vehicle: saline + alcohol", "result": "180 % of control"}, {"measurement": "T/C", "setting": "dose: 177.0 micrograms/kg/injection, schedule: Q01DX009 (ip), vehicle: saline + alcohol", "result": "190 % of control"}, {"measurement": "T/C", "setting": "dose: 389.0 micrograms/kg/injection, schedule: Q01DX004 (ip), vehicle: saline + alcohol", "result": "159 % of control"}, {"measurement": "T/C", "setting": "dose: 400.0 micrograms/kg/injection, schedule: Q01DX009 (ip), vehicle: saline + alcohol", "result": "185 % of control"}, {"measurement": "T/C", "setting": "dose: 432.0 micrograms/kg/injection, schedule: Q01DX009 (ip), vehicle: saline + alcohol", "result": "180 % of control and 181 % of control"}, {"measurement": "T/C", "setting": "dose: 720.0 micrograms/kg/injection, schedule: Q01DX009 (ip), vehicle: saline + alcohol", "result": "182 % of control"}, {"measurement": "T/C", "setting": "dose: 1200.0 micrograms/kg/injection, schedule: Q01DX009 (ip), vehicle: saline + alcohol", "result": "179 % of control"}, {"measurement": "T/C", "setting": "dose: 2000.0 micrograms/kg/injection, schedule: Q01DX009 (ip), vehicle: saline + alcohol", "result": "189 % of control"}]}
